Data: patent US12059422B2 (MEI Pharma, Inc., priority 2011, dated 2024)
pIC50: −log10 of the molar value.

Key:
[1] = target: T1, PI3Kδ (Homo sapiens, UniProt O00329); experiment: ELISA assay for PI3Kδ: sandwich ELISA, phosphorylation of AKT (Thr308) in Raji cells; type: cell-based; conditions: for pIC50: cellular, pAKT (Thr308), Raji cells, anti-Human IgM stimulation, read-out: IC50 p110δ; for α/δ ratio / β/δ ratio / γ/δ ratio: ratio of cellular IC50 values, Table 2
T1 construct: endogenous in cells; host or cells: Raji (ATCC #CCL-86)
Experimental: Cellular PI3Kδ activity was determined by measuring the phosphorylation of AKT (Thr308) using a sandwich enzyme-linked immunosorbant assay (ELISA). Raji (Burkitt's Lymphoma) cells were obtained from ATCC (ATCC #CCL-86). Phosphate buffer saline (PBS) contained 2.7 M NaCl, 54 mM KCl, 86 mM […] (dibasic, anhydrous), and 28 mM […] (monobasic, anhydrous) at pH 7.2. Wash buffer contained PBS supplemented with 0.05% Tween-20. Blocking buffer contained wash buffer supplemented with 1% BSA. A 10× stimulation mixture contained 5 μg/mL anti-Human IgM antibody (Sigma #12386) diluted in serum-free RPMI medium (CellGro #CV-10-040-CV). Compounds for testing were dissolved and serially diluted in 100% DMSO (total of 10 concentrations), and then diluted in serum-free RPMI to 5×final assay concentration.
Raji cells were subcultured in RPMI medium supplemented with 10% fetal bovine serum, 100 IU/mL penicillin, 100 μg/mL streptomycin, and 1×MEM non-essential amino acids. Sandwich ELISA plates were prepared by coating 96-well assay plates (Pierce #15042) with 100 μL/well capture antibody (Cell Signaling Technology #7142 or 7144) diluted in PBS. Plates were incubated overnight at 4° C., then washed with wash buffer, after which 200 μL/well blocking buffer was added to the plates and incubated at room temperature for at least 2 hrs. Raji cells were resuspended in serum-free RPMI medium and seeded into V-bottom, 2-mL 96-well blocks (Corning #3961) at 10^6 cells/well, then incubated for 2 hrs in a 37° C., 5% CO2 incubator. Compound treatment was performed by adding the 5× compound mixture to the cells and incubating for 2 hrs at 37° C., 5% CO2, after which the 10× stimulation mixture was added to the plates and incubated for 30 min at 37° C., 5% CO2. Cells were pelleted by centrifuging plates at 1500 RPM for 5 min at room temperature. Media was carefully removed and cells were lysed by adding 100 μL/well cell lysis buffer (Cell Signaling Technology #9803) supplemented with protease and phosphatase inhibitors (Thermo Fisher #78443). Plates were incubated on ice for 30 min, then the lysates (80 μL for pAKT^T308, 10 μL for total AKT) were transferred to prepared assay plates and incubated at 4° C. overnight. After washing plates with wash buffer, 100 μL/well detection antibody (Cell Signaling Technology #7142 or 7144) diluted in blocking buffer was added to the plates and incubated for 1 hr at 37° C. Plates were washed and 100 μL/well of HRP-conjugated secondary antibody (Cell Signaling Technology #7142 or 7144) diluted in blocking buffer was added to plates and incubated for 1 hr at room temperature. Plates were washed with wash buffer and 100 μL/well of luminescent substrate was added to plates. After 1 min on a plate shaker at medium speed, luminescence was read on a Wallac Victor2 plate reader. IC50 values were determined by curve fitting using a Collaborative Drug Discovery database (www.collaborativedrug.com).

[2] = target: T2, PI3K alpha (Homo sapiens, UniProt P42336); experiment: Luciferase-based luminescence assay (KinaseGlo), PI3K alpha enzymatic activity; type: biochemical; conditions: inhibition of enzymatic activity, 25 μM ATP, read-out: IC50 p110α
T2 construct: purchased Invitrogen Corp., Carlsbad, CA, USA
Outline: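 KinaseGlo luminescence measured ATP remaining after PIP2 (50 μM) phosphorylation with 25 μM ATP in HEPES pH 7.5 buffer with CHAPS and DTT. Final enzyme was 1.65 nM alpha (1 h reaction) or 6.86 nM delta (2 h reaction). IC50 was curve-fitted from 10 concentrations.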

[3] = target: mTOR (Homo sapiens, UniProt P42345); experiment: mTOR inhibition (Table 1); type: biochemical; conditions: Table 1, no method described

T1 sequence (O00329 whole entry): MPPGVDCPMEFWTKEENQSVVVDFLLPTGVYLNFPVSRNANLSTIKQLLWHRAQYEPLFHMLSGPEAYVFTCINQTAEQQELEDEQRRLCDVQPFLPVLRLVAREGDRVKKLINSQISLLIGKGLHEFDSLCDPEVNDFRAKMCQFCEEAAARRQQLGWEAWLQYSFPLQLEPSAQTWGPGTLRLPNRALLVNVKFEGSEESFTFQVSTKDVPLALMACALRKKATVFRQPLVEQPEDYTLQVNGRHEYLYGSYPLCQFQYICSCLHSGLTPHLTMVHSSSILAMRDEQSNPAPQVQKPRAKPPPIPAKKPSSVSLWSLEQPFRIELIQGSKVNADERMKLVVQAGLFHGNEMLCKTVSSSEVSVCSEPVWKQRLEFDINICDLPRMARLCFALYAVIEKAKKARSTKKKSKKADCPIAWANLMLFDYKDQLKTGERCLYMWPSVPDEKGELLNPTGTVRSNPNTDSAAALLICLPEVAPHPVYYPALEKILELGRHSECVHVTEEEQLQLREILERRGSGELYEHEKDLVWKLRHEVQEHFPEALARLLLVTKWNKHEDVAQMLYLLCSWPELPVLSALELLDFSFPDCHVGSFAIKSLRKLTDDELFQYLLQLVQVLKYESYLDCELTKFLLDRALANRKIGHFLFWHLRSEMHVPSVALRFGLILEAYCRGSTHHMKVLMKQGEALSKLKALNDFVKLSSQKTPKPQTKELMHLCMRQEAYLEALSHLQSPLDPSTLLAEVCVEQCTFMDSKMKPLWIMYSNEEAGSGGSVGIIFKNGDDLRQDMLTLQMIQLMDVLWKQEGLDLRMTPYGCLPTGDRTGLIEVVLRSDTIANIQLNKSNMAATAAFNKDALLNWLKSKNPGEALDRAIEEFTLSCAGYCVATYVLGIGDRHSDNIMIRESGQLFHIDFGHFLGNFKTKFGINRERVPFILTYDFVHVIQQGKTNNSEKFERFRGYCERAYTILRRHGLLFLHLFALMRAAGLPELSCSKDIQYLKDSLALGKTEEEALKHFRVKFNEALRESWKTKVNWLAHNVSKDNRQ
T1 sequence (P27986 whole entry partner): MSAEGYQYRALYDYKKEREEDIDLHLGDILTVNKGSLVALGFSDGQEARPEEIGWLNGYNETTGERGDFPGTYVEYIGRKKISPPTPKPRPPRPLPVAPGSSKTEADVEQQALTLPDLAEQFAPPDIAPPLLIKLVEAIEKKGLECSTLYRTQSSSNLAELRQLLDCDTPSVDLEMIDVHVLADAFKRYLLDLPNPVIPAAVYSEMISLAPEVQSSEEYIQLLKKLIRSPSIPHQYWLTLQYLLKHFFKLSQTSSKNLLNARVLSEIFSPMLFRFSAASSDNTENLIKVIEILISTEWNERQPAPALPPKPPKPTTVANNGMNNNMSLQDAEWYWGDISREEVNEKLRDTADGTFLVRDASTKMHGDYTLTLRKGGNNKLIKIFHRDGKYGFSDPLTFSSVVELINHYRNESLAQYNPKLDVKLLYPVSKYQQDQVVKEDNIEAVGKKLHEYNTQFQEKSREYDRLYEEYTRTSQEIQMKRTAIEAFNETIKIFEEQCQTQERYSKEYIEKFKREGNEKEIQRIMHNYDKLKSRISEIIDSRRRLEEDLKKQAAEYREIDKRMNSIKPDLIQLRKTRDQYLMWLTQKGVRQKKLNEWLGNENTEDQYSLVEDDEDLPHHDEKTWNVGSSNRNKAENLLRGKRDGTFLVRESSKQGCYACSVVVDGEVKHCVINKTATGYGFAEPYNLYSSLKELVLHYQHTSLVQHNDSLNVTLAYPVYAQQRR
T2 sequence (P42336 whole entry, species assumed): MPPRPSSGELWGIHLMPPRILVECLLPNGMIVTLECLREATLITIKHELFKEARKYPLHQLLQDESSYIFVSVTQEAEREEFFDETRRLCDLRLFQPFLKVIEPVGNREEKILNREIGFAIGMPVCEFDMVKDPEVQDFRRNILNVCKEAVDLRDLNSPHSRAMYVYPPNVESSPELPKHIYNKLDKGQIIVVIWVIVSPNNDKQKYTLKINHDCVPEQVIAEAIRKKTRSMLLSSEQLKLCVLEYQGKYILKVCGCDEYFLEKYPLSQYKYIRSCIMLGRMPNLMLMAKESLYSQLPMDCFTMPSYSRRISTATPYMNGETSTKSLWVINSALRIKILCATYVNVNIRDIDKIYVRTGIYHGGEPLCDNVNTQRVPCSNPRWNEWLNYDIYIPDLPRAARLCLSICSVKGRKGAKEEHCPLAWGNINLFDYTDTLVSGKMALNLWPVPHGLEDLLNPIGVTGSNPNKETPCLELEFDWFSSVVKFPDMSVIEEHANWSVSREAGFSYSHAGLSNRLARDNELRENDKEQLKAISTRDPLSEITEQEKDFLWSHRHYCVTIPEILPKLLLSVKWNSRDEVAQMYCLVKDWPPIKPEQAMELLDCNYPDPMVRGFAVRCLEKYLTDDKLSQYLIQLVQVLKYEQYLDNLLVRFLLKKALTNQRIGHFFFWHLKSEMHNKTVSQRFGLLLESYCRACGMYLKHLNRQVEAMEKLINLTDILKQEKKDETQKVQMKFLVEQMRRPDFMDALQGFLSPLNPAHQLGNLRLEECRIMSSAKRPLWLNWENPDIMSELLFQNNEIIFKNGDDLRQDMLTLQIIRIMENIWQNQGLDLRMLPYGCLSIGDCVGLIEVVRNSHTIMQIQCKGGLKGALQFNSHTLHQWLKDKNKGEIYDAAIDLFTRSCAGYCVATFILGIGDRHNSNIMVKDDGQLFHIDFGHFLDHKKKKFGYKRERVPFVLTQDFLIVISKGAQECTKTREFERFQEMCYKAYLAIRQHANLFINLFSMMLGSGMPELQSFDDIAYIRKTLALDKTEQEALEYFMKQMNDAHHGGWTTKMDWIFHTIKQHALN
T2 sequence (P27986 whole entry partner, species assumed): as the sequence (P27986 whole entry partner) above

Compound	pIC50 [1]	α/δ ratio [1]	β/δ ratio [1]	γ/δ ratio [1]	pIC50 [2]	pIC50 [3]
Cc1cc(-c2ccccc2CC(C)(C)Nc2nc(N3CCOCC3)nc(-n3c(C(F)F)nc4ccccc43)n2)ccn1 [Compound A43, 4-(2-(difluoromethyl)-1H-benzo[d]imidazol-1-yl)-N-(2-methyl-1-(2-(2-methylpyridin-4-yl)phenyl)propan-2-yl)-6-morpholino-1,3,5-triazin-2-amine]	≥ 7.00	A’	A’	A’	6.30 to 6.70	< 6.30
CC(C)(Cc1ccccc1-c1cn[nH]c1)Nc1nc(N2CCOCC2)nc(-n2c(C(F)F)nc3ccccc32)n1 [Compound A44, 4-(2-(difluoromethyl)-1H-benzo[d]imidazol-1-yl)-N-(1-(2-(1H-pyrazol-4-yl)phenyl)-2-methylpropan-2-yl)-6-morpholino-1,3,5-triazin-2-amine]	≥ 7.00	A’	A’	A’	6.30 to 6.70	< 6.30
Cn1cc(-c2ccccc2CC(C)(C)Nc2nc(N3CCOCC3)nc(-n3c(C(F)F)nc4ccccc43)n2)cn1 [Compound A45, 4-(2-(difluoromethyl)-1H-benzo[d]imidazol-1-yl)-N-(2-methyl-1-(2-(1-methyl-1H-pyrazol-4-yl)phenyl)propan-2-yl)-6-morpholino-1,3,5-triazin-2-amine]	≥ 7.00	A’	B’	A’	6.70 to 7.00	< 6.30
Cn1nccc1-c1ccccc1CC(C)(C)Nc1nc(N2CCOCC2)nc(-n2c(C(F)F)nc3ccccc32)n1 [Compound A46, 4-(2-(difluoromethyl)-1H-benzo[d]imidazol-1-yl)-N-(2-methyl-1-(2-(1-methyl-1H-pyrazol-5-yl)phenyl)propan-2-yl)-6-morpholino-1,3,5-triazin-2-amine]	≥ 7.00	A’	B’	A’	6.30 to 6.70	< 6.30
Cc1cccc(CC(C)(C)Nc2nc(N3CCOCC3)nc(-n3c(C(F)F)nc4ccccc43)n2)c1 [Compound A49, 4-(2-(difluoromethyl)-1H-benzo[d]imidazol-1-yl)-N-(2-methyl-1-m-tolylpropan-2-yl)-6-morpholino-1,3,5-triazin-2-amine]	≥ 7.00	A’	B’	A’	< 6.30	< 6.30
COc1cc(CC(C)(C)Nc2nc(N3CCOCC3)nc(-n3c(C(F)F)nc4ccccc43)n2)ccc1F [Compound A50, 4-(2-(difluoromethyl)-1H-benzo[d]imidazol-1-yl)-N-(1-(4-fluoro-3-methoxyphenyl)-2-methylpropan-2-yl)-6-morpholino-1,3,5-triazin-2-amine]	≥ 7.00	A’	A’	A’	< 6.30	< 6.30
CC(C)(Cc1ccc(F)cc1F)Nc1nc(N2CCOCC2)nc(-n2c(C(F)F)nc3ccccc32)n1 [Compound A51, 4-(2-(difluoromethyl)-1H-benzo[d]imidazol-1-yl)-N-(1-(2,4-difluorophenyl)-2-methylpropan-2-yl)-6-morpholino-1,3,5-triazin-2-amine]	≥ 7.00	A’	D’	A’	< 6.30	< 6.30
CC(C)(Cc1c(F)cccc1F)Nc1nc(N2CCOCC2)nc(-n2c(C(F)F)nc3ccccc32)n1 [Compound A52, 4-(2-(difluoromethyl)-1H-benzo[d]imidazol-1-yl)-N-(1-(2,6-difluorophenyl)-2-methylpropan-2-yl)-6-morpholino-1,3,5-triazin-2-amine]	≥ 7.00	A’	D’	A’	< 6.30	< 6.30
